The test system of this assay is B. subtilis 168 and mtn region mutants. As to the kind of experiment: Growth on MTR as sole sulfur source (ED1 minimal medium plates). In kind it is cell-based, Bacillus subtilis. As for the experimental part: Panel A: ED1 minimal mediums plate with 1 mM IPTG containing 0.2 mM MTR as sole sulfur source WT, metI (BSIP 1143), mtnS (BSHP7010), mtnK (BFS1850), mtnU (BFS1851), mtnV (BSHP7020), mtnW (BSHP7014), mtnX (BFS1852), mtnY (BSHP7016) and mtnZ (BFS 1853) were inoculated for over-night growth at 37° C. No growth of mtnS, mtnK, mtnW and mtnY is represented by an example of absence of growth around a disc with MTR of mtnY mutant in panel B. Normal growth of […] and mtnX is represented by an example of normal growth around a disc with MTR of mtnV mutant in panel C.
Using the collection of mutants constructed during the Bacillus subtilis functional analysis, program (http://locus.jouy.inra.fr/cgi-bin/genmic/madbase/progs/madbase.oper] and http://bacillus.genome.adjp, [9]) and constructing mutants which were not available in the collection, we tested all genes in the region for their phenotype of growth on MTR as the sole sulfur source.
Bacterial strains and plasmids, and growth media: E. coli and B. subtilis strains as well as plasmids used in this work are listed in Table 3. E. coli TG1 and XL1-Blue were used for cloning experiments (TG1 for single cross-over recombination and XL1-Blue for double cross-over recombination). Despite the fact that there are no public regulations yet in this domain in China, all experiments were performed in accordance with the European regulation requirements concerning the contained use of Genetically Modified Organisms of Group-I (French agreement N^o 2735). E. coli and B. subtilis were grown in Luria-Bertani (LB) medium and in ED minimal medium: K2HPO4, 8 mM; KH2PO4, 4,4 mM; glucose, 27 mM; Na3-citrate, 0.3 mM; L-glutamine, 15 mM; L-tryptophan, 0.244 mM; ferric citrate, 33.5 μM; MgSO4, 2 mM; MgCl2, 0.61 mM; CaCl2, 49.5 μM; FeCl3, 49.9 μM; MnCl2, 5.05 μM; ZnCl2, 12.4 μM; CuCl2, 2.52 μM; CoCl2, 2.5 μM; Na2MoO4, 2.48 μM. When methionine was used as sulfur source (1 mM), MgSO4 was replaced by MgCl2 at the same magnesium concentration (2 mM). For assaying growth on plates, either the MgSO4 containing medium or the sulfur-free basal medium was used (MgSO4 was replaced by MgCl2 as described above). In the latter case, 10 [μl of the sulfur source under investigation was applicated onto paper discs (MTR, 200 mM stock solution and methionine, 100 mM stock solution) deposited at the center of the plate, after bacteria had been uniformly spread at the surface of the plate, and growth was measured around the disK. In some cases MTR was used directly in the plate as sulfur source (0.2 mM). When necessary IPTG was included at 1 mM concentration. When xylose was added to the medium (0.5%) in order to trigger the expression of genes under the control of Pxyl inducible promoter, fructose was used as carbon source instead of glucose. LB and ED plates were prepared by addition of 17 g/liter Bacto agar or Agar Noble (Difco), respectively, to the medium. When included, antibiotics were added to the following concentrations: ampicillin, 100 mg/liter; chloramphenicol, 50 mg/liter; spectinomycin, 100 mg/liter; erythromycin plus lincomycin, 1 mg/liter and 25 mg/liter. Bacteria were grown at 37° C. The optical density (OD) of bacterial cultures was measured at 600 nm. MTR was prepared from MTA (Sigma, D5011) by acid hydrolysis as described by Schlenk. 3-fluoromethythiorybose (3F-MM, 5-thio-5-5-S-trifluoromethyl-D-ribose) was synthesised accordingly to [6, 20]. When added directly to the ED1 medium plate, 3F-MTR was used at 100 mg/liter concentration and when applicated onto paper discs 100 mM stock solution was used. For anaerobic growth on plates, the Anaerocult A (Merck) within an anaerobiosis jar for CO2 production with simultanious O2 absorbtion was used. Sulfur-free ED1 minimal medium plates were supplemented to 1% glucose final concentration and with 0.5% sodium pyruvate and 20 mM sodium nitrate as electron acceptor. Plates were incubated at 37° C. for 4 days with the sulfur source under investigation.

“Also recorded” adds a separate entry of the source.

Consider `CSC[C@@H](O)[C@@H](O)[C@@H](O)C=O` [MTR, methylthioribose], for which the “Growth on MTR as sole sulfur source” value is, setting by setting: (Wild type strain 168, + O2, four days) “normal growth after four days”; (Wild type strain 168, anaerobic growth, nitrate as electron acceptor, four days (table row printed '+ O2')) “failed to grow; also recorded: no growth after four days”; (mtnK mutant, strain BFS1850) “no growth; also recorded: failed to grow”; (mtnS mutant, strain BSHP7010) “no growth; also recorded: failed to grow”; (mtnU mutant, strain BFS1851) “failed to grow; also recorded: no growth (numerous revertants)”; (mtnV mutant, strain BSHP7020) “normal growth; also recorded: no visible effect on growth”. The “Growth on MTR as sole sulfur source” value is on record as “no growth; also recorded: failed to grow” (mtnW mutant, strain BSHP7014 (downstream genes expressed)); “normal growth; also recorded: recovered its growth properties” (mtnX mutant, strain BFS1852, IPTG added); “no growth; also recorded: failed to grow” (mtnY mutant, strain BSHP7016); “partial growth; also recorded: very weak (residual) growth; also recorded: very weak, residual growth; also recorded: weak residual growth” (mtnZ mutant, strain BFS1853). Besides, the “Use of MTR as the methionine source” value (methionine auxotrophs) is reported as “can be used as the methionine source”. In addition, the “Growth on MTR” value (mtnW inactivated with a polar effect on the distal genes) is given as “lack of growth”.

The record behind these values is patent US20040019066A1, “Methionine salvage pathway in bacillus” (priority 2002, published 2004).
